According to PMC5908784, “Extracellular loops 2 and 3 of the calcitonin receptor selectively modify agonist binding and efficacy” (Biochemical Pharmacology, 2018):
Positions count from the first letter of the chain named. Read-outs that look alike come from different tables or passages of the source. Where a SMILES comes first, the peptide text is derived from it. Bridges are numbered along the chain shown (N, C = ends).

Key:
Assay in all cases: cAMP accumulation
Format in all cases: cell-based
[1] = target: T1, hCTR G369A (Homo sapiens, UniProt P30988, G369A); conditions: mean ± S.E.M.; for Emax: cAMP maximal response, SEM; for EC50: cAMP, CV1-FlpIn cells, 30 min, IBMX
T1 construct: c-Myc (N); expressed in transfected cells
T1 sequence (P30988 25-474 G369A): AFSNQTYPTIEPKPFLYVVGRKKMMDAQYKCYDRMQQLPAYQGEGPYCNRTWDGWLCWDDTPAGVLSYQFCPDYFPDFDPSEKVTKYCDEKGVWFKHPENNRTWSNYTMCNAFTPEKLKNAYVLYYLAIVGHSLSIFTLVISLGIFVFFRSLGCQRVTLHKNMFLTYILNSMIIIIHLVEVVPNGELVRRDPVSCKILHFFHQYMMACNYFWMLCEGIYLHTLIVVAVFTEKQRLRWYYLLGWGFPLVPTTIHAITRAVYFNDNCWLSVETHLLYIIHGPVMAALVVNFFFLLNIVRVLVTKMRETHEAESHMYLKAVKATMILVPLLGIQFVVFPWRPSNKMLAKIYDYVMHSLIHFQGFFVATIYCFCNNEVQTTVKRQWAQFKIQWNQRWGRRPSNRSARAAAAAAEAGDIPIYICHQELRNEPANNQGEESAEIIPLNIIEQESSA
In short: (§1)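 For each mutant, cAMP generated during a 30 min ligand exposure with IBMX is reported as a fraction of the 100 μM forskolin maximum. Cells were ethanol-extracted and dried at room temperature prior to measurement.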

[2] = target: T2, hCTR P360A (Homo sapiens, UniProt P30988, P360A); conditions: mean ± S.E.M.; for Emax: cAMP maximal response, SEM; for EC50: cAMP, CV1-FlpIn cells, 30 min, IBMX
T2 construct: expressed in transfected cells
T2 sequence (P30988 25-474 P360A): T1 sequence (P30988 25-474 G369A) with P336A, A345G
In short: as §1

[3] = target: T3, hCTR R362A (Homo sapiens, UniProt P30988, R362A); conditions: for Emax: read-out: Emax (% WT), SEM; for EC50: cAMP, CV1-FlpIn cells, 30 min, IBMX
T3 construct: expressed in transfected cells
T3 sequence (P30988 25-474 R362A): T1 sequence (P30988 25-474 G369A) with R338A, A345G
In short: as §1

[4] = target: T4, hCTR L291A (Homo sapiens, UniProt P30988, L291A); conditions: mean ± S.E.M.; for Emax: cAMP maximal response, SEM
T4 construct: expressed in transfected cells
T4 sequence (P30988 25-474 L291A): T1 sequence (P30988 25-474 G369A) with L267A, A345G
In short: as §1

[5] = target: T5, hCTR F285A (Homo sapiens, UniProt P30988, F285A); conditions: mean ± S.E.M.; for Emax: cAMP maximal response, SEM; for EC50: cAMP, CV1-FlpIn cells, 30 min, IBMX
T5 construct: expressed in transfected cells
T5 sequence (P30988 25-474 F285A): T1 sequence (P30988 25-474 G369A) with F261A, A345G
In short: as §1

[6] = R362A, cAMP maximal response, mean ± S.E.M.

SMILES	Emax [1]	Emax [2]	Emax [3]	Emax [4]	Emax [5]	EC50 [1]	EC50 [2]	Emax [3, 6]	EC50 ([3]; R362A, mean ± S.E.M.)	EC50 [5]	EC50 ([4]; cAMP, CV1-FlpIn cells, 30 min, IBMX)
CC(C)C[C@H](NC(=O)[C@H](CCCCN)NC(=O)CNC(=O)[C@H](CC(C)C)NC(=O)[C@@H](NC(=O)[C@@H]1CSSC[C@H](N)C(=O)N[C@@H](CO)C(=O)N[C@@H](CC(N)=O)C(=O)N[C@@H](CC(C)C)C(=O)N[C@@H](CO)C(=O)N[C@@H]([C@@H](C)O)C(=O)N1)C(C)C)C(=O)N[C@@H](CO)C(=O)N[C@@H](CCC(N)=O)C(=O)N[C@@H](CCC(=O)O)C(=O)N[C@@H](CC(C)C)C(=O)N[C@@H](Cc1c[nH]cn1)C(=O)N[C@@H](CCCCN)C(=O)N[C@@H](CC(C)C)C(=O)N[C@@H](CCC(N)=O)C(=O)N[C@H](C(=O)N[C@@H](Cc1ccc(O)cc1)C(=O)N1CCC[C@H]1C(=O)N[C@@H](CCCNC(=N)N)C(=O)N[C@H](C(=O)N[C@@H](CC(N)=O)C(=O)N[C@H](C(=O)NCC(=O)N[C@@H](CO)C(=O)NCC(=O)N[C@H](C(=O)N1CCC[C@H]1C(N)=O)[C@@H](C)O)[C@@H](C)O)[C@@H](C)O)[C@@H](C)O [sCT]	106 ± 8%	100 ± 5%	95 ± 4%	108 ± 4%	105 ± 8%	–	–	–	–	–	–
CC(C)C[C@H](NC(=O)[C@H](CC(N)=O)NC(=O)[C@H](CC(N)=O)NC(=O)[C@H](CO)NC(=O)[C@H](CO)NC(=O)[C@H](CCCNC(=N)N)NC(=O)[C@@H](NC(=O)[C@H](CC(C)C)NC(=O)[C@H](Cc1ccccc1)NC(=O)[C@H](CC(N)=O)NC(=O)[C@H](C)NC(=O)[C@H](CC(C)C)NC(=O)[C@H](CCCNC(=N)N)NC(=O)[C@H](CCC(N)=O)NC(=O)[C@@H](NC(=O)[C@H](C)NC(=O)[C@@H]1CSSC[C@H](NC(=O)[C@@H](N)CCCCN)C(=O)N[C@@H](CC(N)=O)C(=O)N[C@@H]([C@@H](C)O)C(=O)N[C@@H](C)C(=O)N[C@@H]([C@@H](C)O)C(=O)N1)[C@@H](C)O)C(C)C)C(=O)NCC(=O)N1CCC[C@H]1C(=O)N[C@H](C(=O)N[C@@H](CC(C)C)C(=O)N1CCC[C@H]1C(=O)N1CCC[C@H]1C(=O)N[C@H](C(=O)N[C@@H](CC(N)=O)C(=O)N[C@H](C(=O)NCC(=O)N[C@@H](CO)C(=O)N[C@@H](CC(N)=O)C(=O)N[C@H](C(=O)N[C@@H](Cc1ccc(O)cc1)C(N)=O)[C@@H](C)O)C(C)C)[C@@H](C)O)C(C)C [rAmy]	78 ± 6%	115 ± 13%	88 ± 12%	101 ± 13%	92 ± 9%	–	–	–	–	–	–
CC[C@H](C)[C@H](NC(=O)[C@H](C)NC(=O)[C@@H](NC(=O)[C@H](CCC(N)=O)NC(=O)[C@@H]1CCCN1C(=O)[C@H](Cc1ccccc1)NC(=O)[C@@H](NC(=O)[C@H](Cc1c[nH]cn1)NC(=O)[C@H](Cc1ccccc1)NC(=O)[C@H](CCCCN)NC(=O)[C@H](CC(N)=O)NC(=O)[C@H](Cc1ccccc1)NC(=O)[C@H](CC(=O)O)NC(=O)[C@H](CCC(N)=O)NC(=O)[C@@H](NC(=O)[C@H](Cc1ccc(O)cc1)NC(=O)[C@@H](NC(=O)CNC(=O)[C@H](CC(C)C)NC(=O)[C@H](CCSC)NC(=O)[C@@H]1CSSC[C@H](N)C(=O)NCC(=O)N[C@@H](CC(N)=O)C(=O)N[C@@H](CC(C)C)C(=O)N[C@@H](CO)C(=O)N[C@@H]([C@@H](C)O)C(=O)N1)[C@@H](C)O)[C@@H](C)O)[C@@H](C)O)[C@@H](C)O)C(=O)NCC(=O)N[C@H](C(=O)NCC(=O)N[C@@H](C)C(=O)N1CCC[C@H]1C(N)=O)C(C)C [hCT]	129 ± 9%	152 ± 8%	125 ± 9%	131 ± 5%	105 ± 11%	–	–	–	–	–	–
CC(C)C[C@H](NC(=O)CNC(=O)[C@H](C)NC(=O)[C@H](CC(C)C)NC(=O)[C@H](CCCNC(=N)N)NC(=O)[C@H](Cc1cnc[nH]1)NC(=O)[C@@H](NC(=O)[C@@H](NC(=O)[C@@H]1CSSC[C@H](NC(=O)[C@H](C)N)C(=O)N[C@@H](CC(=O)O)C(=O)N[C@@H]([C@@H](C)O)C(=O)N[C@@H](C)C(=O)N[C@@H]([C@@H](C)O)C(=O)N1)C(C)C)[C@@H](C)O)C(=O)N[C@@H](CC(C)C)C(=O)N[C@@H](CO)C(=O)N[C@@H](CCCNC(=N)N)C(=O)N[C@@H](CO)C(=O)NCC(=O)NCC(=O)N[C@H](C(=O)N[C@H](C(=O)N[C@@H](CCCCN)C(=O)N[C@@H](CC(N)=O)C(=O)N[C@@H](CC(N)=O)C(=O)N[C@@H](Cc1ccccc1)C(=O)N[C@H](C(=O)N1CCC[C@H]1C(=O)N[C@H](C(=O)N[C@@H](CC(N)=O)C(=O)N[C@H](C(=O)NCC(=O)N[C@@H](CO)C(=O)N[C@@H](CCCCN)C(=O)N[C@@H](C)C(=O)N[C@@H](Cc1ccccc1)C(N)=O)C(C)C)[C@@H](C)O)C(C)C)C(C)C)C(C)C [hαCGRP]	131 ± 20%	48 ± 5%	–	101 ± 36%	122 ± 18%	24.5 nM	17.4 nM	51 ± 9%	17.8 nM	15.8 nM	–
CSCC[C@H](NC(=O)CNC(=O)[C@H](CO)NC(=O)[C@H](Cc1ccccc1)NC(=O)[C@H](CCCNC(=N)N)NC(=O)[C@H](Cc1c[nH]cn1)NC(=O)[C@H](Cc1ccccc1)NC(=O)[C@H](CC(N)=O)NC(=O)[C@H](CC(N)=O)NC(=O)[C@H](CC(C)C)NC(=O)[C@H](CC(N)=O)NC(=O)[C@H](CCCNC(=N)N)NC(=O)[C@H](Cc1c[nH]c2ccccc12)NC(=O)[C@H](Cc1ccc(O)cc1)NC(=O)[C@H](C)NC(=O)[C@H](CO)NC(=O)[C@H](CC(C)C)NC(=O)[C@@H](NC(=O)[C@@H]1CSSC[C@H](N)C(=O)N[C@@H](CO)C(=O)N[C@@H](CC(N)=O)C(=O)N[C@@H](CC(C)C)C(=O)N[C@@H](CO)C(=O)N[C@@H]([C@@H](C)O)C(=O)N1)C(C)C)C(=O)NCC(=O)N[C@@H](Cc1ccccc1)C(=O)NCC(=O)N1CCC[C@H]1C(=O)N[C@@H](CCC(=O)O)C(=O)N[C@H](C(=O)N1CCC[C@H]1C(N)=O)[C@@H](C)O [pCT] (H-CSNLSTCVLSAYWRNLNNFHRFSGMGFGPETP-NH2; disulfide 1-7)	89 ± 7%	146 ± 13%	–	105 ± 5%	81 ± 10%	0.204 nM	0.132 nM	138 ± 9%	0.182 nM	0.0501 nM	0.316 nM
